Measured values taken from patent publication US20140377289A1, “Metallodrugs Having Improved Pharmacological Properties, and Methods of Manufacture and Use Thereof” (MetalloPharm, LLC, priority 2011, published 2014).
Where a SMILES comes first, the peptide text is derived from it. [ ]: non-standard residue; d: D form. Cha = N[C@@H](CC1CCCCC1)C(=O)O

Key:
HCV protease = HCV protease (Hepatitis C virus genotype 1a, UniProt P27958); assay: biochemical; format: binding
Excerpt: This stems from the relationship between affinity and the on/off rate constants for binding (KA=kon/koff), where higher affinity binding is promoted by larger kon and/or smaller koff values. By contrast, efficient catalytic turnover requires koff values that are preferably no smaller than the rate constant for the inactivation chemistry (kcat), to ensure the availability of metallodrug catalyst for new target molecules, and will be best promoted by relatively high values for both kon and koff, which will result in weaker KA values.
Apparent binding affinities and rates of inactivation for HCV protease by several metallopeptide derivatives incorporating a Cu-GGH metal binding domain and C-terminal HCV protease targeting peptides were prepared and their affinity and reactivity were evaluated under in the presence of various redox reagents. Affinities lay within the range of 10^4M^−1 and 5×10^8 M^−1.

pUC19 plasmid DNA = assay: DNA nicking and linearization nuclease assay; format: biochemical; settings: 10 μM base pairs pUC19; ascorbate/peroxide; — = Below detection limit
[1] = tested on: HCV RNA replicon in ET (luc-ubi-neo/ET) Huh7 cells; settings: read-out: antiviral IC50; 72 h, replicon-derived Luc activity
[2] = tested on: ET (luc-ubi-neo/ET) Huh7 human hepatoma cell line; settings: read-out: cytotoxicity TC50; 72 h, CytoTox-1 colorimetric assay
[3] = target: stem-loop IIb of HCV IRES RNA; format: binding, hepatitis C virus (HCV)
Protocol: RNA was purchased from Dharmacon, part of Thermo Fisher Scientific (Lafayette, Colo.). Peptides were purchased from Genemed Synthesis Inc (South San Francisco, Calif.) with C-terminal amidation. The stem-loop (SL) structure (from Lytle et al., RNA 13: 539-48, 2002) is depicted in FIG. 6. The sequence for the IRES SL IIb RNA used was 5′-Fluorescein-[…]-3′, and for the IRES SL IV RNA was 5′-Fluorescein-[…]-3′. All RNA was annealed by heating to 95° C. and then cooled slowly to room temperature before use.
RNA binding experiments were performed in the presence of 84 nM GGHYrFK-amide in 20 mM HEPES (pH 7.4), 100 mM NaCl. For GGHYrFK-amide, serial additions of unlabeled IRES RNA were added and tyrosine emission was monitored (λex=280 nm, λem=313 nm). Binding data for GGHYr[…]-amide and GGHYr[…]-amide were obtained by adding serial additions of peptide to 5′-fluorescein labeled IRES SLIIb and monitoring at 518 nm (Ex=485 nm). Data was then fit to a one-site binding model.

[4] = tested on: stem loop IIb HCV IRES RNA; format: biochemical, hepatitis C virus (HCV)
Protocol: HCV IRES RNA cleavage was monitored in vitro by fluorescence using 5′ fluorescein end-labeled RNA with excitation and emission wavelengths of 485 nm and 518 nm, respectively. Reactions were carried out in reaction volumes of 100 μl in the presence of 1 mM ascorbate and 1 mM H2O2 in 20 mM HEPES buffer (pH=7.4), 100 mM NaCl with 100 nM of the catalyst and analyzed according to the change in fluorescence observed as the reaction occurred. Both a time-dependence and a concentration-dependence of RNA substrate were observed. The initial velocities were fit to a line using Origin 7.0 software and kobs obtained. These values were then used to obtain the Michaelis-Menten parameters.
The reactivity of select catalytic metallodrugs was investigated by Michaelis-Menten profiles. Reaction chemistry was followed by monitoring the fluorescence change of 5′-fluorescein-labeled RNA as a function of time. Initial velocities were measured as a function of substrate (RNA) concentration to generate a standard Michaelis-Menten plot (FIG. 2).

S. aureus sortase A = S. aureus sortase A (Staphylococcus aureus, UniProt Q2FV99); format: biochemical; settings: for activity for catalyst concentration of 1 μM: catalyst concentration 1 μM
S. aureus sortase A, sequence (Q2FV99 whole entry): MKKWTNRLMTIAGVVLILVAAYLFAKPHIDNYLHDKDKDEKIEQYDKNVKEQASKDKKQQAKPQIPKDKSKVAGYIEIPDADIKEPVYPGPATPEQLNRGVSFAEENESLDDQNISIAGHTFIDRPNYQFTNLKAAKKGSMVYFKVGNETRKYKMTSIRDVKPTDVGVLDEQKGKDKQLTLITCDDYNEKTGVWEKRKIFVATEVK
Protocol: Apparent binding affinities and rates of inactivation for S. aureus sortase A by several metallopeptide derivatives were evaluated. […]

[5] = Michaelis-Menten, stem-loop IIb RNA as substrate

HCV protease, sequence (P27958 1027-1208, other chains not shown): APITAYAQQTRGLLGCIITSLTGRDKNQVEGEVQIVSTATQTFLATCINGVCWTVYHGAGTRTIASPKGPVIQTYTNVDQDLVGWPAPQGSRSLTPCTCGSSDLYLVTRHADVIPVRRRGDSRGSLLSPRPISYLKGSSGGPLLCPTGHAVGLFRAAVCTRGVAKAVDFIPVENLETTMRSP

Compound | IC50 [1] | CC50 [2] | further results
CC[C@H](C)[C@H](NC(=O)[C@H](CC(C)C)NC(=O)[C@@H](CCC(=O)O)NC(=O)[C@H](CC(=O)O)NC(=O)CNC(=O)[C@H](Cc1c[nH]cn1)NC(=O)CNC(=O)CN)C(=O)N[C@@H](CC1CCCCC1)C(=O)N[C@@H](CS)C(=O)O [Cu-GGHGDeLI(Cha)C—CO2^−] (H-GGHGD[dE]LI[Cha]C-OH) | – | – | Kd (HCV protease): 500 nM; Ki (HCV protease): ~500 nM; KA (HCV protease; apparent binding affinity): ~2e+06 M⁻¹
O=C([O-])CN(CC(=O)[O-])CC(=O)[O-].[Fe+3] [Fe-NTA] | – | – | klin for DNA linearization, without attached Rev (M-chelate) (pUC19 plasmid DNA): 0.0008 ± 0.0002 min⁻¹; knick for DNA nicking, without attached Rev (M-chelate) (pUC19 plasmid DNA): 0.05 ± 0.01 min⁻¹
O=C(O)CN(CCN(CC(=O)O)CC(=O)O)CC(=O)O.[Ni] [Ni-EDTA] | – | – | klin for DNA linearization, without attached Rev (M-chelate) (pUC19 plasmid DNA): 0.00019 ± 0.00002 min⁻¹; knick for DNA nicking, without attached Rev (M-chelate) (pUC19 plasmid DNA): 0.037 ± 0.002 min⁻¹
Cu complex of ATCUN peptide GGHYrFK, C-terminal amidated; targets stem-loop IIb of HCV IRES RNA [Cu-GGHYrFK-amide] | 580 nM | > 100000 nM | Kd ([3]; change in tyrosine emission at 313 nm): 44 ± 2 nM; KA ([3]; stem-loop IIb): 2.27e+07 M⁻¹; Km [4, 5]: 0.85 µM; kcat [4, 5]: 0.00883 s⁻¹; Vmax ([4]; cleavage of stem-loop IIb, 100 nM catalyst, 1 mM ascorbate, 1 mM H2O2): 1.71 RFU/min; turnover number ([4]; stem-loop IIb RNA as substrate): 32
Cu-GGHAALEAKICHQIEYYFGDF | 3460 nM | 41100 nM | –
Cu-GGHGAALEAKICHQIEYYFGDF | 6250 nM | 52000 nM | –
Cu-GGHGKYKETDLLILFKDDYFAKKNEERK | 550 nM | > 100000 nM | –
Cu-GGHGKYKETDLLILFKDDYFAKKNEERKKDEL | 750 nM | > 50000 nM | –
Cu-GGHGLPET | – | – | IC50 (S. aureus sortase A): > 100000 nM; activity for catalyst concentration of 1 μM (S. aureus sortase A): 0.027
Cu-GGHGLPETG | – | – | IC50 (S. aureus sortase A): > 100000 nM; activity for catalyst concentration of 1 μM (S. aureus sortase A): 0.012
Cu-GGHGYrFK | 1380 nM | > 100000 nM | –
Cu-GGHGYrFKGGGKDEL | 910 nM | > 100000 nM | –
Cu-GGHGYrFKGGGYGRKKRRQRRR | 950 nM | 96000 nM | –
Cu-GGHKYKETDLLILFKDDYFAKKNEERKYGRKKRRQRRR | 830 nM | > 50000 nM | –
Cu-GGHLPETG | – | – | IC50 (S. aureus sortase A): > 100000 nM; activity for catalyst concentration of 1 μM (S. aureus sortase A): 0.017
Cu-GGHYrFKGGGYGRKKRRQRRR | 1850 nM | 84000 nM | –
